Experiment [1] relates to Pulmonary artery smooth muscle cells (PASMC). The experiment is described as follows: PASMC phenotype markers (Western blot, immunocytochemistry). It is filed as cell-based, lamb. The settings on record: SIN-1 500 μM 48 h. The procedure:
Cells were prepared as previously described (Sud, N., et al., American Journal of Physiology 293, L1444-1453 (2007); Sharma, S., et al., American Journal of Physiology 294, L46-56 (2008)). Briefly, the cellular protein extracts were prepared by homogenizing the cells in lysis buffer (50 mM Tris-HCl, pH 7.6, 0.5% Triton X-100, and 20% glycerol) containing Halt protease inhibitor cocktail (Pierce, Rockford, Ill.). The extracts were then clarified by centrifugation (20,000 g for 20 min at 4° C.). The supernatant fractions were assayed for protein concentration using the Bio-Rad DC Protein Assay (Bio-Rad Laboratories, Hercules, Calif.) and used for Western blot analysis. Similarly, peripheral lung tissue from the control lambs and the lambs with pulmonary hypertension secondary to increased pulmonary blood flow (shunt) was prepared as described earlier (Aggarwal, S., et al., Journal of Cellular Physiology (2011)). Cell extracts ([…]) were resolved using 4-20% Tris-SDS-Hepes PAGE, electrophoretically transferred to Immuno-Blot™ PVDF membrane (Bio-Rad Laboratories, Hercules, Calif.), and then blocked with 5% nonfat dry milk in Tris buffered saline. The membranes were then probed with antibodies against PKG-1α (1:500 dilution), anti-nitrotyrosine 247-PKG-1α (1:500), Calponin-1 (1:500 dilution), Vimentin (1:500 dilution), or MYH (1:500 dilution). Reactive bands were visualized using chemi-luminescence (Pierce Laboratories, Rockford, Ill.) on a Kodak 440CF image station. The band intensity was quantified using Kodak 1D image processing software. The protein expression was normalized by re-probing with anti β-actin (1:2000).
Semi-confluent PASMC grown on a coverslip in a 6-well plate were transfected with a mammalian expression plasmid containing either a wild-type (WT)- or Y247F-PKG-1α cDNA. After 20 h, the cells were serum starved (1% FBS) for 4 h then exposed or not to SIN-1 (500 μM) for 48 h. The cells were washed with PBS, methanol fixed (5 min), and permeabilized in 0.1% PBS-Tween (20 min). […] The cells were rinsed 3× with PBS, and the coverslips were mounted on the slides with ProLong Gold Antifade and analyzed with the use of a Nikon Eclipse TE 300 inverted fluorescent microscope with a 60× oil objective and a Hamamatsu digital camera.
To assess the effect of nitration on pulmonary arterial smooth muscle cell (PASMC) phenotype, PASMC were transiently transfected with expression plasmids containing WT-PKG-1α, Y247F-PKG-1α, or PDEST40 (as a control) for 20 h. Cells were then exposed or not to SIN-1 (500 μM, 48 h) and the effect on synthetic and contractile markers determined. The levels of myosin heavy chain (MYH, FIG. 18A), Calponin-1 (FIG. 18B), and Vimentin (FIG. 18C) were determined. […]
In general terms: A western blot detects proteins with antibodies after separation by electrophoresis.

In the next experiment the target is T1, PKG-1α (Homo sapiens, UniProt Q13976).
T1 construct: transfected with an expression plasmid containing a full length WT-PKG-1α cDNA; made in house; host or cells: HEK-293T (methods); the results paragraph b527 says PASMC
T1 sequence (Q13976 2-671): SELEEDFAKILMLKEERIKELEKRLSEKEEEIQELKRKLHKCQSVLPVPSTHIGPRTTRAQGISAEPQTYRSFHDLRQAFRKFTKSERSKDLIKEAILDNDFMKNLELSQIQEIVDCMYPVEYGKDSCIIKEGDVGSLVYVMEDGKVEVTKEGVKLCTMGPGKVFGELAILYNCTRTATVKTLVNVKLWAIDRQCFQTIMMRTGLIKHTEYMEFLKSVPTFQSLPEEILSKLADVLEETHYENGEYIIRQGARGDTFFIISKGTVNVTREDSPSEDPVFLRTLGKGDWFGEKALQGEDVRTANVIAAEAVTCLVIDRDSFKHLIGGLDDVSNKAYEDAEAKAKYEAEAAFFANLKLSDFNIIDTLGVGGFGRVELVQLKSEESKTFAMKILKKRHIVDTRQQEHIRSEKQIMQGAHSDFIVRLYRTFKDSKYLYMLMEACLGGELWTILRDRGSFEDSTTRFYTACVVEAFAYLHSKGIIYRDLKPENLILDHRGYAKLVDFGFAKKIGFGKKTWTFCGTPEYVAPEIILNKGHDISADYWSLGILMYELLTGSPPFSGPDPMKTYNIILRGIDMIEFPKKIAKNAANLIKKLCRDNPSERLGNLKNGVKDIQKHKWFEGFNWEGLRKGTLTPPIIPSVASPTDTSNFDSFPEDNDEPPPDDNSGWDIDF
Put plainly: PKG protein levels and PKG activity in transfected PASMC. The settings on record: PASMC transfected with WT-PKG-1α, SIN-1 500 μM 48 h. Type of experiment: cell-based. Here is the method:
Therefore, the effect of these events were investigated in PASMC transiently transfected with expression plasmids containing WT- and Y247F-PKG-1α. The effect of nitration on pulmonary arterial smooth muscle cell (PASMC) growth and metabolism was determined. PASMC were transiently transfected with expression plasmids containing WT-PKG-1α, Y247F-PKG-1α or pDEST40 (as a control) for 20 h. Cells were then exposed or not to SIN-1 (500 μM, 48 h) and the effect on PKG protein levels (FIG. 17A) and activity determined (FIG. 17B).
Cells were prepared as previously described (Sud, N., et al., American Journal of Physiology 293, L1444-1453 (2007); Sharma, S., et al., American Journal of Physiology 294, L46-56 (2008)). Briefly, the cellular protein extracts were prepared by homogenizing the cells in lysis buffer (50 mM Tris-HCl, pH 7.6, 0.5% Triton X-100, and 20% glycerol) containing Halt protease inhibitor cocktail (Pierce, Rockford, Ill.). The extracts were then clarified by centrifugation (20,000 g for 20 min at 4° C.). […] Reactive bands were visualized using chemi-luminescence (Pierce Laboratories, Rockford, Ill.) on a Kodak 440CF image station. The band intensity was quantified using Kodak 1D image processing software. […]
Measurement of PKG Catalytic Activity Total PKG activity was determined using a non-radioactive immunoassay in cell lysates, according to the manufacturer's directions. […]

With “3-morpholinosydnonimine N-ethylcarbamide [SIN-1]”, in experiment [1] (WT-PKG-1α expressing PASMC), the PCNA staining result was “increased” and the SM-22α expression entry was “attenuated”. Moreover, in experiment [1] (WT-PKG-1α transfected PASMC), the “Expression of contractile markers MYH and Calponin-1” value was “decreased”; the “Expression of proliferative marker Vimentin” value is listed as “increased”. The “cGMP dependent increase in PKG activity, WT-PKG-1α cells” value on PKG-1α was “attenuated”.

Source of the values: US9447157B2, “Nitration shielding peptides and methods of use thereof” (Augusta University Research Institute, Inc., priority 2013, dated 2016).
